The text below walks through data of PubChem BioAssay AID179 (DTP/NCI, 2004).

For this test, the system named is CEM cells HIV-1 protection, formazan growth assay. The test is described as follows: NCI AIDS Antiviral Assay. As to conditions: for IC50: measured here: growth of uninfected CEM cells. The gist of the method:
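Category rules: moderately active means at least 50% protection on retest, and confirmed active means 100% protection reproducibly. The underlying data came from a formazan growth assay in HIV-1-infected CEM cells.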

Each structure is given as a SMILES string. Activity calls are given as the source filed them.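 Rule for the calls: active = compounds giving half or more protection of infected cells from virus-caused growth loss, again on retest; inactive = the rest.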

As usually defined, the EC50 is the concentration needed to bring the measured effect to its halfway point. The term IC50 denotes the midpoint of a concentration-inhibition curve. High values mean a need for much substance, low ones inhibition by little substance. Regarding `CN(CCO)c1nc(N)cc(=O)[nH]1`, the EC50 is over 1350 µM and the concentration for half-maximal inhibition (IC50) was over 1350 µM.
Regarding `Cc1ccc(N=C(N)NC#N)cc1`, the EC50 was over 1450 µM and the half-maximal inhibitory concentration (IC50) is over 1450 µM.
As to `CC1=C(C)C(=O)C2=C(OCCCO2)C1=O`, the EC50 was over 1200 µM and the half-maximal inhibitory concentration (IC50) stood at 3.39 µM.
`OC1c2ccccc2C2C(O)c3ccccc3C12` (centres undefined): the result was inactive.
For `Cc1ccc(S(=O)(=O)Nn2c(S)c(C#N)c(-c3ccc(N(C)C)cc3)c(C#N)c2=O)cc1`, the EC50 is over 200 µM and the half-inhibitory concentration (IC50) was 7.76 µM.
Take `S=P(NC1CCCCC1)(NC1CCCCC1)NC1CCCCC1`: the EC50 is over 200 µM and the IC50 was over 200 µM.
With `OC1[C@H]([C@H]2CCCC[C@@H]2O)CCC[C@@H]1[C@@H]1CCCC[C@H]1O` (some centres undefined), the EC50 is over 170 µM and the half-inhibitory concentration (IC50) is over 170 µM.
For the molecule `c1csc(-c2ccc(-c3ccsc3)s2)c1`, the EC50 was over 200 µM and the half-maximal inhibitory concentration (IC50) was over 200 µM.
Turning to `Fc1cccc(F)c1C1SCc2nc3ccc(Cl)cc3n21` (centres undefined), the concentration giving a half-maximal response (EC50) was 4.07 µM and the IC50 is over 200 µM.
In the same order, the values of `CC(=O)SSC12CC3CC(CC(C3)C1)C2` are over 200 µM and over 200 µM.
Regarding `COC(=O)/C=C/c1cnc2c(c1)oc(=O)n2C`, the EC50 was over 200 µM and the IC50 is over 200 µM.
As for `C=C(C)[C@H]1CC(=O)[C@@]2(C)C[C@H]3O[C@]3(C)CC/C=C(\C)CC[C@H]12`, the EC50 was over 200 µM and the IC50 stood at 55 µM.
On to `O=C1NNC(=O)c2ccccc2SSc2ccccc2C(=O)NNC(=O)c2ccccc2SSc2ccccc21`, for which the concentration giving a half-maximal response (EC50) was 5.01 µM and the IC50 came out at 25.1 µM.
Regarding `C[C@]12CCc3nonc3C1CC[C@@H]1C2CC[C@@]2(C)C1CC[C@@H]2O` (some centres undefined), the EC50 is over 214 µM and the IC50 was 174 µM.
Molecule `O=[As](O)(O)c1ccc(Nc2nc(Cl)nc(Cl)n2)cc1` showed an EC50 of over 200 µM and an IC50 of over 200 µM.
For `COc1c(O)c2c(=O)cc(OC)c3c4c(OC)cc(=O)c5c(O)c(OC)c6c(c(c1CC(C)(O)C6C(C)=O)c23)c54` (centres undefined), the EC50 was over 13.2 µM and the concentration for half-maximal inhibition (IC50) came to 1.58 µM.
Consider `O=C(CSc1nnc(-c2ccc(N=Cc3ccc(Cl)cc3)cc2)o1)Nc1ccc(Cl)cc1Cl`, for which the EC50 is over 34.7 µM and the IC50 worked out at 25.1 µM.
For `CC1Cc2cc(OCc3ccccc3)cc(OCc3ccccc3)c2[C@H](C)N1Cc1ccccc1` (some centres undefined), the EC50 is over 200 µM and the IC50 came to 14.5 µM.
In the same order, the values of `O=C(CC(O)(C(F)(F)F)C(F)(F)F)c1cccs1` are over 200 µM and over 200 µM.
In the same order, the values of `COC(=O)c1ccc(C)cc1C1CN=NC12Cc1cc(C)c(C)cc1C2=O` (centres undefined) are over 200 µM and 22.4 µM.
`O=C1/C(=C/c2ccc([N+](=O)[O-])cc2)CCc2ccccc21`: the EC50 is over 7.24 µM and the IC50 was over 7.24 µM.
Take `O=C(OCCN1CCCC12CCCCC2)C(c1ccccc1)C1C=CCC1` (centres undefined): the EC50 was over 200 µM and the IC50 amounted to 24.5 µM.
Take `CC(C)OP(=O)(OC(C)C)c1ncn(-c2ccc([N+](=O)[O-])cc2)n1`: the EC50 was over 513 µM and the half-inhibitory concentration (IC50) stood at 468 µM.
As to `CC1=C(C(=O)Nc2cccc(Cl)c2)C(c2ccccc2F)C(C(=O)Nc2cccc(Cl)c2)=C(C)N1`, the EC50 is over 14.1 µM and the IC50 is over 14.1 µM.
For the molecule `CC(O)c1nc(C#N)c(N)o1` (centres undefined), the EC50 is 3.31 µM and the IC50 is over 200 µM.
As to `Cc1cc(=O)oc2cc(O)c(O)cc12`, the EC50 is over 200 µM and the IC50 turned out to be 27.5 µM.
The matching figures for `Cc1cn(C2CCC(CO)(CF)O2)c(=O)[nH]c1=O` (centres undefined): over 200 µM and over 200 µM.
Consider `COc1ccc2c(c1)[n+]([O-])c(S(=O)(=O)c1ccc(C)cc1)c(N)[n+]2[O-]`, for which the result was inactive.
Consider `COc1ccc(OC)c(Cc2c(OC)ccc(OC)c2O)c1O`, for which the result was inactive.
Regarding `COc1cc(CNC2c3cc4c(cc3C(c3cc(OC)c(OC)c(OC)c3)[C@H]3C(=O)OCC23)OCO4)cc(OC)c1OC` (some centres undefined), the outcome was inactive.
`O=S1Cc2nc3ccccc3n2C1c1c(F)cccc1F` (centres undefined): the EC50 was over 117 µM.
As to `CC1CC(=O)C(CC(=O)O)C1C(C(=O)C(=O)Nc1c(C#N)cccc1[N+](=O)[O-])[N+](=O)[O-]` (centres undefined), the outcome was inactive.
As for `COc1ccc(Nc2c(C#N)c3n(c4ccccc24)c2ccccc2[n+]3C)cc1OC`, the EC50 is over 200 µM and the IC50 was 3.09 µM.
`Clc1cc(Cl)cc(N=C/C=C/Nc2cc(Cl)cc(Cl)c2)c1`: the result was inactive.
As to `O=c1[nH]nc(-c2ccccc2)n1/N=C/c1c(O)ccc2ccccc12`, the EC50 is over 200 µM and the IC50 was determined as 112 µM.
As for `N#CC(C(=O)/C(=N\Nc1nc(=S)[nH]n1N)C(C#N)c1ccc(Cl)cc1)c1ccc(Cl)cc1` (centres undefined), the EC50 is over 53.7 µM and the IC50 is over 53.7 µM.
In the case of `Nc1c(C(=O)Nc2ccccc2)[n+]([O-])c2ccccc2[n+]1[O-]`, the result was inactive.
Take `COCC(=O)[C@]1(O)Cc2c(O)c3c(c(O)c2[C@@H](OC2CC(N)C(O)C(C)O2)C1)C(=O)c1c(OC)cccc1C3=O` (some centres undefined): the EC50 is over 0.2 µM and the IC50 is 0.0631 µM.
Take `O=C(O)C(C(C(=O)O)P(=O)(O)O)P(=O)(O)O` (centres undefined): the EC50 was over 200 µM and the IC50 was over 200 µM.
With `CN1C(=O)OC(c2ccc(Cl)cc2)C1=O` (centres undefined), the EC50 was over 200 µM and the IC50 was over 200 µM.
For `CC(=O)Nc1ccc(C(O)/C(=N/N)c2nc3ccc(Cl)cc3[nH]c2=O)cc1` (centres undefined), the EC50 was over 162 µM and the IC50 is over 162 µM.
As to `COCC(O)Cn1ccnc1[N+](=O)[O-]` (centres undefined), the EC50 is over 1230 µM and the IC50 is over 1230 µM.
Regarding `CN1C(=O)C23SSC1(C)C(=O)N2c1ccccc1C3(C)C` (centres undefined), the EC50 is over 200 µM and the concentration for half-maximal inhibition (IC50) is 7.94 µM.
Turning to `CC(C)CC(NC(=O)C(C)(CI)Cc1ccccc1)C(=O)Nc1ccccc1` (centres undefined), the EC50 was over 200 µM and the half-inhibitory concentration (IC50) stood at 170 µM.
For the molecule `O=C1CN=C(c2ccccc2)c2cc(Cl)ccc2N1`, the EC50 is over 26.3 µM and the IC50 is over 26.3 µM.
On to `CCCc1nc(NC#N)nc(C(=O)NC23CC4CC(CC(C4)C2)C3)c1C`, for which the EC50 was over 355 µM and the IC50 was over 355 µM.
As to `C=CCNC(=O)NNC(O)(C(=O)OCC)C(F)(F)F` (centres undefined), the EC50 is over 200 µM and the half-maximal inhibitory concentration (IC50) turned out to be 174 µM.
Consider `NC(CSS(=O)(=O)O)=NCCc1ccccn1`, for which the EC50 is over 200 µM and the IC50 was over 200 µM.
As for `NCCCCCCCCCCC(=O)O`, the EC50 was 151 µM and the IC50 was over 200 µM.
In the case of `NC(=S)NN=C(C1CC1)C1CC1`, the EC50 is over 200 µM and the concentration for half-maximal inhibition (IC50) is over 200 µM.
With `O=C1NC(=O)C2C(=O)NC(=O)C1C2c1c(Cl)cccc1Cl` (centres undefined), the EC50 was over 759 µM and the half-inhibitory concentration (IC50) turned out to be 501 µM.
`CC12CC3(O)OC(O1)C1(COC(=O)c4ccccc4)C3C[C@@]21OC1OC(COC(=O)c2cc(O)c(O)c(O)c2)C(O)C(O)C1O` (some centres undefined): the outcome was inactive.
Regarding `CCC(=O)[CH-]C(=O)CC.CCC(=O)[CH-]C(=O)CC.[Cu+2]`, the EC50 was over 200 µM and the IC50 was found to be 24.5 µM.
On to `O=C1[C@@H]2C(c3ccccn3)=NO[C@@H]2C(=O)N1c1ccc(Cc2ccc(N3C(=O)[C@H]4C(c5ccccn5)=NO[C@H]4C3=O)cc2)cc1`, for which the EC50 is over 8.71 µM and the IC50 is over 8.71 µM.
Regarding `c1ccc2sc(SN3CCOCC3)nc2c1`, the EC50 was over 10.7 µM and the IC50 was over 10.7 µM.
With `Cc1cn(C2COC(CO)C2CO)c(=O)[nH]c1=O` (centres undefined), the concentration giving a half-maximal response (EC50) is 44.7 µM and the IC50 was over 200 µM.
Turning to `C#CCN(C(=O)C(F)(F)F)c1ccc(C(=O)c2ccc(N(CC#C)C(=O)C(F)(F)F)cc2)cc1`, the EC50 was over 28.2 µM and the 50% inhibitory concentration (IC50) is over 28.2 µM.
Regarding `Cc1csc(NNC(=O)Nc2ccccc2)n1`, the EC50 was over 129 µM and the IC50 turned out to be 43.7 µM.
Turning to `Cc1ccc([N+](=O)[O-])cc1NC(=O)C(=O)C(C(=O)c1ccccc1F)C1OC(=O)c2ccccc21` (centres undefined), the EC50 was over 275 µM and the IC50 came out at 8.32 µM.
Turning to `Nc1ccc(S(N)(=O)=O)cc1SSc1cc(S(N)(=O)=O)ccc1N`, the EC50 was 55 µM and the IC50 stood at 132 µM.
As for `CC(C)(C)OC(=O)NC(Cc1cnc[nH]1)C(=O)N1CCCC1C(N)=O` (centres undefined), the EC50 is over 200 µM and the IC50 is over 200 µM.
Consider `C=C[C@@H]1c2ccccc2C=C[C@]1(CCC1(C)OCCO1)C1=NC(C)(C)CO1`, for which the EC50 was over 70.8 µM and the IC50 was over 70.8 µM.
In the case of `CCCCCCCCCCCCCCCCCCNc1ccn(C2OC(CO)C(OP(=O)(O)OCC3CCC(n4ccc(N)nc4=O)O3)C2O)c(=O)n1` (centres undefined), the half-maximal effective concentration (EC50) was 1.1 µM and the half-maximal inhibitory concentration (IC50) came to 15.8 µM.
In the same order, the values of `NNC(=S)N1CCN(C(=S)NN)CC1` are over 200 µM and 15.1 µM.
`O=C(O)c1cccc[c]1[Sb](=[O])([OH])[OH]` showed an EC50 of over 200 µM and a half-maximal inhibitory concentration (IC50) of 87.1 µM.
For the molecule `CN1CC2=C(NC(=S)NC2c2ccc(Cl)cc2)/C(=C/c2ccc(Cl)cc2)C1` (centres undefined), the EC50 is over 200 µM and the IC50 amounted to 33.9 µM.
In the same order, the values of `Cc1cc(C)c2c(c1)CC2NC(=O)Cc1ccccc1` (centres undefined) are over 26.9 µM and over 26.9 µM.
For the molecule `CCC[CH2][Sn]1([CH2]CCC)[O]C(=O)c2cccc(C)c2[O]1`, the result was inactive.
As to `C=C=C(CC)C(C(=O)OC)N(CC)CC` (centres undefined), the result was inactive.
In the case of `NC(=O)N=Nc1c2ccccc2n2[nH]ccc12`, the EC50 was over 200 µM and the half-inhibitory concentration (IC50) came to 81.3 µM.
In the case of `C[C@]12CC[C@H](O)CC1=CC[C@@H]1C2CC[C@]2(C)Nc3c(cnn3-c3ccccc3)CC12` (some centres undefined), the result was inactive.
Regarding `C[C@]12CC[C@H](O)CC1=CC[C@@H]1C2CC[C@@]2(C)C1CC[C@@H]2c1nc(-c2ccccc2)cs1` (some centres undefined), the EC50 was over 15.5 µM and the half-maximal inhibitory concentration (IC50) is over 15.5 µM.
`CC1(C)C2CCC1C(=O)C(C=O)C2` (centres undefined): the EC50 is over 200 µM and the IC50 was over 200 µM.
